Experimental data: patent publication US8426386B2, “NK1 receptor antagonist composition” (Lion Corporation, priority 2006, dated 2013)

System: NK1 receptor
Experiment: NK1 Receptor Antagonism Assay (calcium imaging, substance P stimulation)
Assay type: cell-based, human
Details: for effect as the NK1 receptor antagonist (in words): summary of Table 1
Text: [Performance Evaluation Test] NK1 Receptor Antagonism Assay
In this test, maltose, maltotriose, maltotetraose, maltopentaose, maltohexaose and maltoheptaose were purchased from SIGMA, isomaltose, isomaltotriose, isomaltotetraose, isomaltopentaose, isomaltohexaose and isomaltoheptaose were purchased from Seikagaku Corporation, and four types of oligosaccharides-1-kestose, fructofranosylnystose, nystose and galactotetraose—were purchased from Wako Pure Chemicals Industries Ltd. Each oligosaccharide was diluted with saline, and used.
In order to transiently express a cloned human NK1 receptor in HEK293, cDNA of the human NK1 receptor was cut out from pCDM8 (Invitrogen), and cloned in an expression vector pCDM9 derived by inserting an ampicillin resistant gene (BLUESCRIPT, nucleotides 1973 to 2964 from SK+) at a SacII site.
HEK293 cells were seeded at 1×10^5 cells in a Falcon dish (diameter: 3.5 cm) using α-MEM medium (Gibco) containing 10% bovine fetal serum, and cultured in a 5% CO2 incubator at 37° C. overnight. Then, 20 μg of the expression vector was transfected using Transfection Reagent FuGENE6 (Roche) according to attached instructions, and the transfectants were incubated at 37° C. for 3 days and assayed by a calcium imaging method.
According to Renganathan et al's method (Renganathan M et al., J. Neurophysiol., 84(2), […] (2000)), nerve cells were dispersed and isolated from spinal dorsal root ganglion in a wild type mouse, and 1×10^5 thereof were seeded in a 24-well plate coated with poly-L-lysine. The cells were cultured in 90% DMEM medium (GIBCO) supplemented with 10% bovine fetal serum, 2 mM glutamine, 100 U/mL of penicillin/streptomycin, 100 ng/mL of NGF (SIGMA) and 5 μM cytosine arabinoside (SIGMA) under 5% CO2 at 37° C. The cells were cultured for 1 to 3 weeks, and subsequently subjected to a calcium imaging analysis. A half of the nerve cells was identified to be positive for the NK1 receptor by staining the nerve cells derived from spinal dorsal root ganglion in the wild type mouse with an anti-NK1 receptor antibody (supplied from CHEMICON International).
The cells which express the NK1 receptor transiently or constitutively were subjected to measurement using a high resolution digital B/W cooling CCD camera (ORCA supplied from Hamamatsu Photonics K.K.), and their images were analyzed using an analysis software (AQUA COSMOS supplied from Hamamatsu Photonics K.K.). When the cells were labeled for calcium, Fluo4-AM (supplied from Molecular Probe) was used as a calcium sensitive dye. Fifty μg of Fluo4-AM was dissolved in 400 μL of DMSO in a vial, 4 μL of Pluronic F-127 (Molecular Probe) was added and mixed, and then 4 mL of OPTI-MEM (GIBCO) was added thereto. The calcium sensitive dye solution thus prepared was added to the cells, which were then incubated at 37° C. for 60 minutes. An agonist, an antagonist and samples to be evaluated were prepared at concentrations which were 10 times higher than assay concentrations, and analyzed by adding a one tenth volume of the cell suspension upon analysis. All reagents and an assay temperature were kept at 37° C. For the cells transfected transiently, YFP reporter DNA fluorescence (excitation: 490 nm) was used for identifying the transfected cells. Upon measurement, a fluorescence intensity obtained by initially imaging the untreated cells was made an initial value. After passing one minute, a change of calcium/fluorescence intensity in the sample to be evaluated at the desired concentration was monitored with an interval of one second before and after the addition (2 to 5 minutes). Subsequently, substance P was added, and immediately after (2 to 5 minutes), an antagonistic activity of the sample to be evaluated was determined by monitoring the change of intracellular calcium concentrations as the change of the fluorescence intensities with the interval of one second. […]

[1] = evaluated concentration 1000 ppm, substance P 100 μM
[2] = evaluated concentration 0.1 ppm, substance P 100 μM
[3] = evaluated concentration 1 ppm, substance P 100 μM
[4] = evaluated concentration 10 ppm, substance P 100 μM
[5] = evaluated concentration 100 ppm, substance P 100 μM

Row | Compound | effect as the NK1 receptor antagonist (in words) | NK1 receptor antagonistic activity (positive control, 100 ppm (Table 1), substance P 100 μM) [%] | efficacy at a low concentration (in words) (0.1 ppm) | Efficacy (NK1 receptor antagonistic activity grade) [1] | Efficacy (NK1 receptor antagonistic activity grade) [2] | Efficacy (NK1 receptor antagonistic activity grade) [3] | Efficacy (NK1 receptor antagonistic activity grade) [4] | Efficacy (NK1 receptor antagonistic activity grade) [5]
1 | OC[C@H]1O[C@@](CO)(OC[C@@]2(OC[C@@]3(O[C@H]4O[C@H](CO)[C@@H](O)[C@H](O)[C@H]4O)O[C@H](CO)[C@@H](O)[C@@H]3O)O[C@H](CO)[C@@H](O)[C@@H]2O)[C@@H](O)[C@@H]1O [Nystose, nystose, reference compound] | no NK1 receptor antagonistic activity was observed at all | – | – | D (Ineffective: the antagonistic activity was less than 65%, or the stimulating or agonistic activity of the sample was strong.) | – | – | – | –
2 | SPANTIDE II: standard substance SPANTIDE II (peptidic analog of substance P), positive control (SPANTIDEII) [reference compound] | – | 65 | – | – | – | – | – | –
3 | maltoheptaose | high effect | – | – | B (Effective: the antagonistic activity was 65% or more and less than 75% and the more excellent performance than in the positive control was shown.) | D (Ineffective: the antagonistic activity was less than 65%, or the stimulating or agonistic activity of the sample was strong.) | C (Slightly effective: the antagonistic activity was less than 65%, and a stimulating or agonistic activity of the sample was weak.) | C (Slightly effective: the antagonistic activity was less than 65%, and a stimulating or agonistic activity of the sample was weak.) | B (Effective: the antagonistic activity was 65% or more and less than 75% and the more excellent performance than in the positive control was shown.)

Continued, in another order:

Row | effect as the NK1 receptor antagonist (in words) | NK1 receptor antagonistic activity (positive control, 100 ppm (Table 1), substance P 100 μM) [%] | efficacy at a low concentration (in words) (0.1 ppm) | Compound | Efficacy (NK1 receptor antagonistic activity grade) [1] | Efficacy (NK1 receptor antagonistic activity grade) [2] | Efficacy (NK1 receptor antagonistic activity grade) [3] | Efficacy (NK1 receptor antagonistic activity grade) [4] | Efficacy (NK1 receptor antagonistic activity grade) [5]
4 | high effect | – | – | maltohexaose | B (Effective: the antagonistic activity was 65% or more and less than 75% and the more excellent performance than in the positive control was shown.) | C (Slightly effective: the antagonistic activity was less than 65%, and a stimulating or agonistic activity of the sample was weak.) | C (Slightly effective: the antagonistic activity was less than 65%, and a stimulating or agonistic activity of the sample was weak.) | B (Effective: the antagonistic activity was 65% or more and less than 75% and the more excellent performance than in the positive control was shown.) | B (Effective: the antagonistic activity was 65% or more and less than 75% and the more excellent performance than in the positive control was shown.)
5 | high effect | – | high efficacy | maltopentaose | A (Complete response: the antagonistic activity was 75% or more and much more excellent performance than in the positive control was shown.) | B (Effective: the antagonistic activity was 65% or more and less than 75% and the more excellent performance than in the positive control was shown.) | B (Effective: the antagonistic activity was 65% or more and less than 75% and the more excellent performance than in the positive control was shown.) | B (Effective: the antagonistic activity was 65% or more and less than 75% and the more excellent performance than in the positive control was shown.) | A (Complete response: the antagonistic activity was 75% or more and much more excellent performance than in the positive control was shown.)
6 | high effect | – | – | maltotriose | A (Complete response: the antagonistic activity was 75% or more and much more excellent performance than in the positive control was shown.) | C (Slightly effective: the antagonistic activity was less than 65%, and a stimulating or agonistic activity of the sample was weak.) | C (Slightly effective: the antagonistic activity was less than 65%, and a stimulating or agonistic activity of the sample was weak.) | C (Slightly effective: the antagonistic activity was less than 65%, and a stimulating or agonistic activity of the sample was weak.) | B (Effective: the antagonistic activity was 65% or more and less than 75% and the more excellent performance than in the positive control was shown.)
